{"source": "paper PMC8208785", "about": "“Therapeutic efficacy of novel memantine nitrate MN‐08 in animal models of Alzheimer’s disease” (Aging Cell, 2021)", "key": {"[1]": {"system": "ERK and PI3K/Akt/GSK3β pathway", "assay": "Western blotting of p-ERK, p-Akt, p-GSK3β and Bcl-2 in glutamate-challenged CGNs", "format": "cell-based, rat", "details": "for upregulation of ERK1/2 phosphorylation induced by glutamate: 2 h pre‐treatment, glutamate 0.5 h", "source_text": "To further characterize the neuroprotection of MN‐08, the level of the key signaling molecules, such as ERK, Akt, and GSK3β, was examined by Western blotting assay. […] Moreover, pre‐treatment with MN‐08 reversed expression of both p‐Akt and p‐GSK3β with the challenge of glutamate. Akt is an important downstream member of PI3K. To further confirm whether the PI3K/Akt pathway was associated with the neuroprotection of MN‐08 against glutamate‐induced excitotoxicity, specific PI3K inhibitor LY294002 was applied and incubated with MN‐08. […] Taken together, MN‐08 might protect against glutamate‐induce cytotoxicity by reversing the dysregulations of ERK pathway and PI3K/Akt/GSK3β pathway.\nWestern blotting analysis was performed as previously described with minor modifications (Huang, Li, & Nan, 2017). Proteins were extracted from hippocampal tissue and their concentrations determined by the BCA protein assay kit (Fdbio science, Hangzhou, China). The protein (20 μg) was separated on a 12% SDS-PAGE gel and then transferred to PVDF membranes. The membranes were blocked using 5 % nonfat dry milk for 2 h. The protein blots were incubated with the corresponding primary antibodies against p-Akt (#4060, 1:1000, Cell Signaling Technology), Akt (#4685, 1:1000, Cell Signaling Technology), BACE1 (#5606, 1:1000, Cell Signaling Technology), PS1 (#5643, 1:1000, Cell Signaling Technology), p-GSK3β (#5558, 1:1000, Cell Signaling Technology), GSK3β (#12456, 1:1000, Cell Signaling Technology), Bcl-2 (#3498, 1:1000, Cell Signaling Technology), Bax (#5023, 1:1000, Cell Signaling Technology), Cleaved caspase-3 (#9661, 1:1000, Cell Signaling Technology), Caspase-3 (#9662, 1:1000, Cell Signaling Technology), ADAM10 (#14194, 1:1000, Cell Signaling Technology), APP (#ab241592, 1:1000, Abcam), sAPPα (#ab126723, 1:1000, Abcam), NEP (#ab216341, 1:1000, Abcam), Synapsin I (#ab64581, 1:1000, Abcam), Synapsin II (#ab76494, 1:1000, Abcam), NR2A (#ab124913, 1:2000, Abcam), PSD95 (#ab18258, 1:1000, Abcam), Synaptophysin (#ab32127, 1:1000, Abcam), IDE (#ab133561, 1:1000, Abcam), Drebin (#ab178408, 1:1000, Abcam) and Tau-5 (#ab80579, 1:2000, Abcam) overnight at 4°C. After washing 3 times, the membranes were incubated with the respective HRP-conjugated secondary antibody. ECL Western blotting Detection Reagents (Fdbio science, Hangzhou, China) were used to perform Chemiluminescence detection. Quantitative analysis of protein bands was conducted by the Carestream system (Carestream Health, Inc, USA).\nCGNs were prepared from the 8-day-old Sprague–Dawley rats as described in our previous publication (Li et al., 2005). Briefly, animals were anesthetized and sacrificed, and their cerebella were collected. Then, the freshly collected cerebella were rinsed in cold Kreb’s buffer-BSA and digested with 0.025 % trypsin incubated in a 37°C for 15 min. The reaction was stopped, and the single cell suspension was obtained through pipetting up and down the sedimentary tissue. CGNs were seeded in basal modified Eagle’s medium (ThermoFisher Scientific, Waltham, MA, USA) supplemented with 10 % fetal bovine serum, 25 mM KCl, 2 mM glutamine and 100 units/mL penicillin/streptomycin at a density of 1.5×10^6 cells/mL. Cytosine arabinoside (10 μM) was added to inhibit the growth of non-neuronal cells at 24 h after seeding. All experiments were carried out after 8 days in vitro. […]"}, "[2]": {"system": "3×Tg‐AD mice", "assay": "Golgi staining of dendritic spines and Western blotting of synaptic markers in 3×Tg-AD mice", "format": "in vivo", "procedure": "Triple transgenic 3×Tg‐AD mice were acquired from Jackson Laboratory and fostered in the Shenzhen Center for Disease Control and Prevention (Shenzhen, China). Eight‐month‐old 3×Tg‐AD mice were categorized into six groups: (1) 3×Tg‐AD +Vehicle group; (2) 3×Tg‐AD +MN‐08 (3 mg/kg) group; (3) 3×Tg‐AD +MN‐08 (6 mg/kg) group; (4) 3×Tg‐AD +MN‐08 (12 mg/kg) group; (5) 3×Tg‐AD +Memantine (Mem, 5 mg/kg) group; (6) 3×Tg‐AD +Donepezil (Done, 1.3 mg/kg, once daily) group; (7) Eight‐month‐old B6129SF2/J mice as a control group. MN‐08 and memantine were given twice daily (Done, once daily) by gastric gavage for 4 months from 8 months of age.\nGolgi staining was used to determine hippocampal dendritic spine density by a Rapid Golgi Stain Kit (FD Neurotechnologies, Columbia, MD, USA) according to the manufacturer’s instructions. The brain was removed after the behavioral tests and incubated with impregnation solution in the dark at room temperature for 1 week. Impregnation solution was replaced with solution A and stored in the dark for 3 days. Brain sections (100 μm thickness) were placed on gelatin-coated microscope slides and then immersed in ddH2O. Solution B, Solution C, 80 % ethanol and xylene were used for 10 min, sequentially. The dendritic spines of hippocampal neurons were analyzed and counted in a blinded manner from six sections per animal by light microscopy (Olympus, Tokyo, Japan).\nWestern blotting analysis was performed as previously described with minor modifications (Huang, Li, & Nan, 2017). Proteins were extracted from hippocampal tissue and their concentrations determined by the BCA protein assay kit (Fdbio science, Hangzhou, China). The protein (20 μg) was separated on a 12% SDS-PAGE gel and then transferred to PVDF membranes. The membranes were blocked using 5 % nonfat dry milk for 2 h. […] Quantitative analysis of protein bands was conducted by the Carestream system (Carestream Health, Inc, USA)."}, "[3]": {"assay": "toxicology study in beagle dogs (NOAEL)", "details": "dog, in vivo", "procedure": "Forty healthy adult beagle dogs were randomly divided into 4 groups of 5 males (weighing 6.43-8.40 kg) and 5 females (weighing 5.39-6.77 kg) each: (1) Placebo group; (2) MN-08 (4 mg/kg) group; (2) MN-08 (12 mg/kg) group; (3) MN-08 (24 mg/kg) group. MN-08 tablets were administered to beagle dogs by gastric gavage for 4 weeks. The no observed adverse effect level (NOAEL) was examined according to previously described (Brownawell, Carmines, & Montesano, 2011)."}}}
{"smiles": "CCC12CC3CC(N)(C1)CC(CO[N+](=O)[O-])(C3)C2", "note": "(stereo not drawn) [MN‐08]", "values": [{"measurement": "expression of both p‐Akt and p‐GSK3β with the challenge of glutamate", "setting": "[1]; MN‐08 30 µM pre‐treatment", "result": "reversed"}, {"measurement": "upregulation of ERK1/2 phosphorylation induced by glutamate", "setting": "[1]; MN‐08 30 µM", "result": "significantly inhibited"}, {"measurement": "Bcl‐2 downregulation caused by glutamate", "setting": "[1]; pre‐treatment MN‐08 30 µM", "result": "significantly reversed"}, {"measurement": "reduction of dendritic spines (hippocampus CA1, Golgi staining)", "setting": "[2]; MN‐08 6 mg/kg", "result": "markedly reversed"}, {"measurement": "expression of synaptic markers (SYP, PSD95, SYN I, SYN II, NR2A)", "setting": "[2]; MN‐08 6 mg/kg, Western blot", "result": "significantly increased"}, {"measurement": "NOAEL at 4 weeks", "setting": "[3]; both sexes, beagle, po", "result": 24, "unit": "mg/kg"}]}
{"smiles": "CC12CC3CC(C)(C1)CC(N)(C3)C2", "note": "[memantine, 1‐amino‐3,5‐dimethyladamantane]", "values": [{"measurement": "upregulation of ERK1/2 phosphorylation induced by glutamate", "setting": "[1]; memantine 10 µM", "result": "significantly inhibited"}, {"measurement": "reduction of dendritic spines (hippocampus CA1, Golgi staining)", "setting": "[2]; memantine 5 mg/kg", "result": "markedly reversed"}, {"measurement": "NOAEL", "setting": "[3]; beagle dogs, memantine, regimen not stated, read-out: no observed adverse effect level (NOAEL)", "result": 9, "unit": "mg/kg"}]}
